Test results published in ChEMBL document CHEMBL1201862, “PubChem BioAssay data set” (2004).
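Briefly, cells in 96-well plates were exposed to five compound concentrations for 48 h, and endpoints were estimated by linear interpolation. GI50 is the concentration that inhibits growth by half.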 Active and inactive are the calls of the source. Cut-off read from the data, not from the text of the source: active = GI50 up to about 1.1 µM and inactive = higher.

Experiments:
Test in all cases: NCI-60 cell line screen, 48 h
OVCAR-8 = system: OVCAR-8
M14 = system: M14
CAKI-1 = system: CAKI-1
SF-295 = system: SF-295
SK-MEL-28 = system: SK-MEL-28
HCT-15 = system: HCT-15
RXF 393 = system: RXF 393
COLO 205 = system: COLO 205
MDA-N = system: MDA-N
UACC-257 = system: UACC-257
IGROV-1 = system: IGROV-1
RPMI-8226 = system: RPMI-8226
K562 = system: K562
UACC-62 = system: UACC-62
CCRF-CEM = system: CCRF-CEM
HOP-62 = system: HOP-62
SR = system: SR
SN12C = system: SN12C
PC-3 = system: PC-3
KM12 = system: KM12
SW-620 = system: SW-620
NCI-H23 = system: NCI-H23
SK-OV-3 = system: SK-OV-3
786-0 = system: 786-0
TK-10 = system: TK-10
MDA-MB-231 = system: MDA-MB-231
EKVX = system: EKVX
SK-MEL-5 = system: SK-MEL-5
SF-268 = system: SF-268
Malme-3M = system: Malme-3M
DU-145 = system: DU-145
LOX IMVI = system: LOX IMVI
MCF7 = system: MCF7
HL-60 = system: HL-60
HT-29 = system: HT-29
MOLT-4 = system: MOLT-4
A549 = system: A549
SNB-75 = system: SNB-75
T47D = system: T47D
HCC 2998 = system: HCC 2998
MDA-MB-435 = system: MDA-MB-435
SK-MEL-2 = system: SK-MEL-2
OVCAR-4 = system: OVCAR-4
ACHN = system: ACHN
NCI-H460 = system: NCI-H460
UO-31 = system: UO-31
HCT-116 = system: HCT-116
NCI-H226 = system: NCI-H226
U-251 = system: U-251
SNB-19 = system: SNB-19
SF-539 = system: SF-539
NCI/ADR-RES = system: NCI/ADR-RES
NCI-H522 = system: NCI-H522
OVCAR-3 = system: OVCAR-3
OVCAR-5 = system: OVCAR-5
HOP-92 = system: HOP-92
Hs-578T = system: Hs-578T

CCCCCCCCCC[C@@H](OC(C)=O)[C@@H]1CC[C@@H]([C@@H]2CC[C@@H]([C@@H](O)CC#C/C=C/CCCCCCC[C@@]3(Sc4ccccc4)C[C@H](C)OC3=O)O2)O1
GI50 (OVCAR-8): > 10 µM (inactive)
GI50 (M14): > 10 µM (inactive)
GI50 (CAKI-1): > 10 µM (inactive)
GI50 (SF-295): > 10 µM (inactive)
GI50 (SK-MEL-28): > 10 µM (inactive)
GI50 (HCT-15): > 10 µM
GI50 (RXF 393): > 10 µM (inactive)
GI50 (COLO 205): > 10 µM (inactive)
GI50 (MDA-N): > 10 µM (inactive)
GI50 (UACC-257): 3.08 µM (inactive)
GI50 (IGROV-1): > 10 µM (inactive)
GI50 (RPMI-8226): > 10 µM (inactive)
GI50 (K562): 9.89 µM (inactive)
GI50 (UACC-62): > 10 µM (inactive)
GI50 (CCRF-CEM): > 10 µM (inactive)
GI50 (HOP-62): > 10 µM (inactive)
GI50 (SR): > 10 µM (inactive)
GI50 (SN12C): > 10 µM (inactive)
GI50 (PC-3): > 10 µM (inactive)
GI50 (KM12): > 10 µM (inactive)
GI50 (SW-620): > 10 µM (inactive)
GI50 (NCI-H23): 0.968 µM (active)
GI50 (SK-OV-3): > 10 µM (inactive)
GI50 (786-0): > 10 µM (inactive)
GI50 (TK-10): > 10 µM (inactive)
GI50 (MDA-MB-231): > 10 µM (inactive)
GI50 (EKVX): > 10 µM (inactive)
GI50 (SK-MEL-5): 4.57 µM (inactive)
GI50 (SF-268): > 10 µM (inactive)
GI50 (Malme-3M): > 10 µM (inactive)
GI50 (DU-145): > 10 µM (inactive)
GI50 (LOX IMVI): > 10 µM (inactive)
GI50 (MCF7): > 10 µM (inactive)
GI50 (HL-60): > 10 µM (inactive)
GI50 (HT-29): > 10 µM (inactive)
GI50 (MOLT-4): > 10 µM (inactive)
GI50 (A549): > 10 µM (inactive)
GI50 (SNB-75): > 10 µM (inactive)
GI50 (T47D): 7.46 µM (inactive)
GI50 (HCC 2998): > 10 µM (inactive)

NNc1ncc2c(n1)-c1ccccc1OC2
GI50 (OVCAR-8): 44.4 µM (inactive)
GI50 (M14): 52.4 µM (inactive)
GI50 (CAKI-1): > 100 µM (inactive)
GI50 (MDA-MB-435): 70.5 µM (inactive)
GI50 (SF-295): 36.1 µM (inactive)
GI50 (SK-MEL-28): > 100 µM (inactive)
GI50 (HCT-15): 29.9 µM
GI50 (RXF 393): > 100 µM (inactive)
GI50 (COLO 205): 59.3 µM (inactive)
GI50 (MDA-N): > 100 µM (inactive)
GI50 (UACC-257): > 100 µM (inactive)
GI50 (IGROV-1): 31 µM (inactive)
GI50 (SK-MEL-2): > 100 µM (inactive)
GI50 (OVCAR-4): 67.1 µM (inactive)
GI50 (ACHN): 42.2 µM (inactive)
GI50 (NCI-H460): 32.3 µM (inactive)
GI50 (UO-31): 41.1 µM (inactive)
GI50 (HCT-116): 36.5 µM (inactive)
GI50 (RPMI-8226): 38.2 µM (inactive)
GI50 (K562): 50.9 µM (inactive)
GI50 (UACC-62): 63.7 µM (inactive)
GI50 (CCRF-CEM): 17.3 µM (inactive)
GI50 (HOP-62): 35.6 µM (inactive)
GI50 (SR): 27.8 µM (inactive)
GI50 (SN12C): 71.6 µM (inactive)
GI50 (PC-3): 47.2 µM (inactive)
GI50 (KM12): 54.1 µM (inactive)
GI50 (SW-620): 69.7 µM (inactive)
GI50 (NCI-H226): 75.2 µM (inactive)
GI50 (NCI-H23): > 100 µM (inactive)
GI50 (SK-OV-3): 57.1 µM (inactive)
GI50 (U-251): 54.2 µM (inactive)
GI50 (786-0): 64.3 µM (inactive)
GI50 (TK-10): > 100 µM (inactive)
GI50 (SNB-19): > 100 µM (inactive)
GI50 (MDA-MB-231): > 100 µM (inactive)
GI50 (EKVX): 49.4 µM (inactive)
GI50 (SK-MEL-5): 76.9 µM (inactive)
GI50 (SF-268): 41.6 µM (inactive)
GI50 (Malme-3M): 51.2 µM (inactive)
GI50 (DU-145): 61 µM (inactive)
GI50 (SF-539): 46.3 µM (inactive)
GI50 (LOX IMVI): 58.9 µM (inactive)
GI50 (MCF7): 50.1 µM (inactive)
GI50 (HL-60): 19.7 µM (inactive)
GI50 (HT-29): 43.9 µM (inactive)
GI50 (MOLT-4): 22.5 µM (inactive)
GI50 (NCI/ADR-RES): 28 µM (inactive)
GI50 (A549): 96.2 µM (inactive)
GI50 (NCI-H522): 46.5 µM (inactive)
GI50 (SNB-75): 35.6 µM (inactive)
GI50 (OVCAR-3): 22.2 µM (inactive)
GI50 (OVCAR-5): > 100 µM (inactive)
GI50 (HOP-92): 24.7 µM (inactive)
GI50 (Hs-578T): > 100 µM (inactive)
